# Experiments:
# [1] = test system: Fancc−/− mice; test: Example 10 preparative regimen for BM transplantation in Fancc−/− mice; type: in vivo; settings: preconditioning before BM transplantation
# Protocol: Four preparative regimens before BM transplantation on Fancc−/− mice are used to evaluate the capacity of CASIN as a preconditioning agent: (1) Control group; (2) CY group: a single dose of 40 mg/kg CY intraperitoneally; (3) CASIN group: 2.5 mg/Kg; (4) combination of CASIN and CY: one injection of CASIN is given in combination with reduced doses of CY.
# Fancc−/− mice are preconditioned with each of these four regimens, and 4×10^7 BM cells from congenic strain mice are transplanted into preconditioned mice by tail vein injection. Mice that underwent transplantation are bled every four weeks to monitor the chimerism of donor-derived cells in PB. And at 3 m, the mice are sacrificed to evaluate the engraftment of donor-derived cells in BM.
# [2] = molecular target: Rac (Homo sapiens, UniProt P63000); test: nucleotide exchange: Tiam-induced exchange of mant-GDP with Rac; type: biochemical
# Text: For example, even at 10 times the IC50 of Cdc42, a 50% inhibition of the association of mant-GDP with Rac or Rho was not achieved.
# [3] = test system: LT-HSC, ST-HSC, and MPP; test: Example 8 kinetics of BM HSC number, cell cycle and reconstitution; type: in vivo, C57Bl/6 mice
# Protocol: To monitor the kinetics of CASIN effects on cell number, proliferation, and cell cycle change of HSCs, four time points post-CASIN-administration are focused on in this part. The determination of the four time points depends on the PD analysis to reflect the kinetics of HSCs from relatively quiescent state through proliferative state back to the quiescent state. In this study, the following time points are used: 0, 24, 48, and 96 hours postdosing as an example. Again C57Bl/6 mice are used here. Three subpopulations of HSC/P are investigated and phenotypically defined by flow cytometry: (1) Long-term reconstituting Flk-2-HSC (LT-HSC) subset (Lin−/c-Kit+/Sca-1+/Thy1.1int/FLK2−) capable of extensive self-renewal; (2) Short-term reconstituting Flk-2int HSC(ST-HSCF) subset (Lin−/c-K1t+/Sca-1+/Thy1.1int/FLK2int), which self-renews for a limited interval; (3) Nonself-renewing Flk-2+ multipotent progenitor (MPPF) subset (Lin−/c-K1t+/Sca-1+/Thy1.1int/FLK2+).
# Harvest of PB and BM: At 0, 24, 48, and 96 h post CASIN injection, the mice are sacrificed, and then the marrow is flushed from the femurs and tibias of C57Bl/6 mice and the blood cells are collected by cardiac incision.
# Change of the frequency and total number of subpopulations of HSC/Ps in BM and PB: Both PB and BM cells are further prepared for flow cytometry analysis. Then, the frequencies of LT-HSC, ST-HSC, and MPP along the four time points are determined using the combinations of cell surface markers mentioned above phenotypically by flow cytometry. The absolute numbers of different subpopulations of HSC in BM and PB are calculated according to the total cellularity of BM and PB of the mice.
# Cell cycle analysis: To characterize the cell cycle status of subpopulations of HSCs following treatment with CASIN, double-sorted cells are stained with Hoechst 33342 and Pyronin Y (H/PY), allowing simultaneous assessment of the fraction of cells with more than 2n DNA content (Hoechst 33342), as well as relative levels of total double-stranded RNA (PY). […]
# [4] = test system: N-RasMA93 cells; test: adhesion of N-RasMA93 leukemia cells via CH296; type: cell-based, human; settings: in vitro
# Protocol: FIG. 5C. Adhesion of leukemia cells via CH296 without or with CASIN pre-treatment at doses of 5 and 10 μM was examined.
# Like normal HSCs, their malignant counterpart, leukemia initiating cells (LICs) reside in their BM niches that provide the structural and physiological conditions supporting their survival and growth. LICs are resistant to traditional chemotherapy by interacting with their BM microenvironment, which are the culprits of leukemia relapses after a period of remission induced by chemotherapy. Detachment of LICs from their niche by CASIN would be a valuable supplementary therapy to the traditional cancer therapies (e.g., chemotherapies). First of all, in vitro effects of CASIN were examined in adhesion, migration, and F-actin polymerization of LICs, each of which is independently important for the retention of LICs in BM niches. Retroviral transduction of an MLL-AF9 fusion cDNA together with N-Ras oncogene into normal human CD34^+cord blood cells led to the establishment of cultures of N-Ras-MA93 cells that can initiate acute myeloid leukemia in NOG mice. […] To address it, a human AML model was set up by transplanting N-RasMA93 cells into NOG mice intravenously.
structure (smiles),measurement,setting,value
OCCNC1CCCc2c1[nH]c1ccc(-c3ccccc3)cc21 (stereo not shown) [CASIN],repopulation and engraftment of donor derived cells in PB and BM of Fancc−/− recipient mice,[1],reasonable repopulation and engraftment of donor derived cells
same,Tiam induced nucleotide exchange of mant-GDP with Rac,[2]; FIG. 6,did not affect
same,inhibition of the association of mant-GDP with Rac,[2]; at 10 times the IC50 of Cdc42,< 50%
same,reconstitution frequency of BM LT-HSCs,"[3]; 48 hours post injection, compared to non-treated mice",significantly decreases
same,cell cycle status of HSC/P subpopulations (H/PY staining),[3]; after CASIN administration,decreased frequencies of cells in G0 phase
same,"numbers and frequencies of LT-HSC, ST-HSC, and MPP population in BM",[3]; post-CASIN administration,increase dramatically up to 48 h post-CASIN administration
same,adhesion capacity of N-RasMA93 cells,[4],not affected significantly

# Source: patent US9433663B2, “Mobilization of hematopoietic stem cells” (Children's Hospital Medical Center, priority 2008, dated 2016)
